Publication PMC12163317, “The food effect on the pharmacokinetics of TQB3616 capsule in Chinse healthy subjects: a randomized, open-label, single-center, two-period, two-sequence crossover phase I clinical trial” (Frontiers in Pharmacology, 2025)

What was measured:
[1] = Food effect on pharmacokinetics of TQB3616 capsule, crossover phase I trial, plasma concentration by LC-MS/MS; type: in vivo, human; details: for AUC_Extrap / t1/2 / λZ / AUC0-t / AUC0-∞ / Cmax: mean ± SD; for AUC0-t / AUC0-∞ / Cmax / Tmax: single oral 180 mg; for Tmax: median (min, max)
Description: This was a randomized, open-label, single-center, two-period, two-sequence crossover early phase I clinical trial to evaluate the food effect on the pharmacokinetics of TQB3616 capsules in healthy subjects. The trial was conducted at Affiliated Hospital of Changchun University of Chinese Medicine and the protocol was approved by the Ethics Committee of the Affiliated Hospital of Changchun University of Chinese Medicine (CCZYFYLL 2021-006). The ethical approval process of this study complied with the requirements of Good Clinical Practice (GCP), the Declaration of Helsinki and the relevant domestic laws and regulations. All subjects had provided written informed consent before the study.
Subjects were admitted to the research center 2 days prior to drug administration and randomly assigned to either Group A or Group B at a 1:1 ratio. Group A, subjects received the study drug under fasted condition in period one and under fed condition in period 2. Conversely, in Group B, subjects received the study drug under fed conditions in the first period and under fasting conditions in the second period. The study employed a crossover design, with a washout period of at least 19 days between the two treatment periods.
The study protocol mandated that subjects take the medication after an overnight fast lasting at least 10 h. In a fasted condition, subjects consumed a 180 mg TQB3616 capsule with 240 mL of warm water, ensuring they remained and fasted for an additional 4 h post-dose. In a fed condition, subjects consumed a 180 mg TQB3616 capsule with 240 mL of warm water after consuming a high-fat, high-calorie breakfast (approximately 800–1,000 kcal, Supplementary table) 30 min prior to adminstration, subjects began their breakfast and completed the meal within the next 30 min. Capsules were swallowed whole without chewing.
Pharmacokinetic (PK) samples were collected at specific times: 0 h (within 60 min prior to dosing), 1 h, 2 h, 4 h, 5 h, 5.5 h, 6 h, 6.5 h, 7 h, 7.5 h, 8 h, 12 h, 24 h, 48 h, 72 h, 120 h, 168 h and 264 h post-dosing, totaling 18 sampling points. At each scheduled time, approximately 3 mL of blood was collected with a pre-chilled EDTA-K2 tubes. After gentle 180° inversion (×4) for homogenization, samples were immediately transferred to an ice bath. All blood specimens were centrifuged at 3,500 rpm for 10 min within 30 min of collection. The obtained plasma was aliquoted and stored at −80°C ± 10°C until batch analysis.
(§1) Plasma concentrations of TQB3616 were quantified using a validated liquid chromatography-tandem mass spectrometry (LC-MS/MS) method. Calibration standards and quality control samples (K2-EDTA plasma matrix) were prepared using [D8]-TQB3616 as the internal standard. Protein precipitation extraction from 100 μL plasma was performed followed by chromatographic separation on a C18 column (50 × 2.1 mm, 1.7 μm). Mass transitions m/z 447.1→431.3 (TQB3616) and m/z 455.2→439.3 (IS) were monitored for quantification.
Phoenix WinNonlin (version 8.3.4) was used to calculate pharmacokinetic parameters, including: […] (Tmax), area under the curve (AUC) from time zero to the last measurable concentration (AUC0-t), AUC from time zero to observed infinity (AUC0- ∞ ), peak concentration (Cmax),terminal half-life of analyte in plasma (t1/2), terminal rate constant (λz), and extrapolated AUC percentage (AUCextrp (%)). Other statistical analyses were performed using SAS (version 9.4). All tests were considered statistically significant at p < 0.05.
Based on the Pharmacokinetics Parameter Set (PKPS), main parameters were summarized by fasting/fed groups using sample size, arithmetic mean, standard deviation, coefficient of variation, median, minimum, maximum, as well as geometric mean and geometric coefficient of variation.
For the food-effect equivalence analysis set (BES), a mixed-effects model analyzed natural log-transformed Cmax, AUC0-t, and AUC0- ∞ . […]

[2] = Safety analysis, adverse events (CTCAE version 5.0) in the food-effect trial; type: in vivo, human
Source text: The safety analysis utilized the safety data set (SS), comprising all subjects receiving TQB3616 with recorded safety assessments. The safety assessments indicators included adverse events, serious adverse events, laboratory tests (routine blood, blood biochemistry, urinalysis, and coagulation), vital signs ([…]), 12-lead electrocardiogram, and physical examination. The frequency, type, extent, and comorbid medications of all treatment-emergent adverse events (TEAEs) occurring during treatment were recorded systematically documented. For severity, adverse events were rated and documented using the National Cancer Institute-Common Terminology Criteria for Adverse Events (CTCAE) version 5.0. The Medical Dictionary for Regulatory Activities (MedDRA) was used to encode the classification of adverse events. Any adverse events observed during the trial were monitored until resolution, return to baseline levels, or stabilization the subject’s condition.

[3] = Stability of TQB3616 in LC-MS/MS method validation (K2-EDTA plasma matrix); type: in vitro ADME
Description: as §1
This study undertook a comprehensive validation of the LC-MS/MS methodology for quantifying TQB3616. The validated quantitative range for TQB3616 was established between 0.3 ng/mL and 300 ng/mL. […] Sample dilution integrity was confirmed at 20-fold dilution.

[4] = parameters: method as in unpublished data; details: ref unpublished data, cited from earlier work
CDK4/6 = tested on: CDK4/6; parameters: method as in unpublished data; details: preclinical; ref unpublished data; cited from earlier work
[5] = tested on: HR+/HER2-breast cancer MCF-7 cells; parameters: method as in unpublished data; details: in vitro; ref unpublished data; cited from earlier work
MCF-7 tumor = tested on: MCF-7 tumor; parameters: method as in unpublished data; details: ref unpublished data, cited from earlier work
[6] = parameters: method as in unpublished data; details: ref unpublished data; cited from earlier work
[7] = coefficient of variation, equivalence analysis fed vs fasted
[8] = both periods, 16 subjects in safety set

SMILES: CC(C)c1c2cc(-c3nc(Nc4ccc(N5CCNCC5)cn4)ncc3F)ccc2nn1C [TQB3616]
- AUC_Extrap ([1]; Fasted (n = 11)): 7.57 ± 3.29%
- t1/2 ([1]; Fasted (n = 11)): 71.27 ± 11.83 h
- λZ ([1]; Fasted (n = 11)): 0.01 ± 0.002 h⁻¹
- AUC0-t ([1]; Fasted (n = 11)): 3,634.80 ± 2,174.18 h ^a ng/mL
- AUC0-∞ ([1]; Fasted (n = 11)): 3,920.86 ± 2,325.20 h ^a ng/mL
- Cmax ([1]; Fasted (n = 11)): 60.39 ± 37.17 ng/mL
- Tmax ([1]; Fasted (n = 11)): 6.0 (5.0, 24.0) h
- AUC0-t GeoMean ([1]; Fasted, n = 11): 3,303.72 h*ng/mL
- AUC0-∞ GeoMean ([1]; Fasted, n = 11): 3,584.79 h*ng/mL
- Cmax GeoMean ([1]; Fasted, n = 11): 48.47 ng/mL
- AUC_Extrap ([1]; Fed (n = 13)): 6.97 ± 2.90%
- t1/2 ([1]; Fed (n = 13)): 68.95 ± 10.68 h
- λZ ([1]; Fed (n = 13)): 0.01 ± 0.002 h⁻¹
- AUC0-t ([1]; Fed (n = 13)): 5305.30 ± 1948.11 h ^a ng/mL
- AUC0-∞ ([1]; Fed (n = 13)): 5710.59 ± 2,100.68 h ^a ng/mL
- Cmax ([1]; Fed (n = 13)): 75.39 ± 28.34 ng/mL
- Tmax ([1]; Fed (n = 13)): 7.0 (7.0, 12.0) h
- AUC0-t GeoMean ([1]; Fed, n = 13): 4792.51 ng·h/mL
- AUC0-∞ GeoMean ([1]; Fed, n = 13): 5130.98 ng·h/mL
- Cmax GeoMean ([1]; Fed, n = 13): 71.76 ng/mL
- AUC0-t CV [1, 7]: 26.51%
- AUC0-∞ CV [1, 7]: 26.07%
- Cmax CV [1, 7]: 53.42%
- AUC0-t Fed/Fasted Ratio (geometric mean ratio) ([1]; fasted as the reference): 145.06%
- AUC0-∞ Fed/Fasted Ratio (geometric mean ratio) ([1]; fasted as the reference): 143.13%
- Cmax Fed/Fasted Ratio (geometric mean ratio) ([1]; fasted as the reference): 148.04%
- AUC0-t ([1]; fasting): 3,634.80 ± 2,174.18 h·ng/mL
- AUC0-∞ ([1]; fasting): 3,920.86 ± 2,325.20 h·ng/mL
- increase of AUC0-t by food intake ([1]; fed compared with fasted): 45.95%
- increase of AUC0-∞ by food intake ([1]; fed compared with fasted): 45.65%
- rise in AUC with a meal ([1]; fed compared with fasted): 45%
- AUC0-t ([1]; fed): 5305.30 ± 1948.11 ng·h/mL
- AUC0-∞ ([1]; fed): 5710.59 ± 2,100.68 h·ng/mL
- postprandial increase in AUC ([1]; females): 69.9%
- postprandial increase in Cmax ([1]; females): 33.5%
- postprandial increase in AUC ([1]; males): 38.2%
- postprandial increase in Cmax ([1]; males): 20.9%
- TEAE Abdominal discomfort, n (%) ([2]; Fasted): 7.42%
- TEAE Abdominal pain, n (%) ([2]; Fasted): 4.94%
- TEAE Blood bilirubin increased, n (%) ([2]; Fasted): 1.23%
- TEAE Blood triglycerides increased, n (%) ([2]; Fasted): 7.42%
- TEAE Diarrhea, n (%) ([2]; Fasted): 13.58%
- TEAE Nausea, n (%) ([2]; Fasted): 7.42%
- TEAE Protein total decreased, n (%) ([2]; Fasted): 1.23%
- TEAE Thrombocyte count decreased, n (%) ([2]; Fasted): 1.23%
- TEAE White blood cells urine positive, n (%) ([2]; Fasted): 2.47%
- TEAE emesis, n (%) ([2]; Fasted): 6.17%
- TEAE laboratory tests, n (%) ([2]; Fasted): 13.58%
- TEAE Abdominal discomfort, n (%) ([2]; Fed): 11.11%
- TEAE Abdominal pain, n (%) ([2]; Fed): 2.47%
- TEAE Blood bilirubin increased, n (%) ([2]; Fed): 1.23%
- TEAE Blood bilirubin unconjugated increased, n (%) ([2]; Fed): 1.23%
- TEAE Blood triglycerides increased, n (%) ([2]; Fed): 4.94%
- TEAE Diarrhea, n (%) ([2]; Fed): 12.35%
- TEAE Gastrointestinal Disorders, n (%) ([2]; Fed): 33.33%
- TEAE Head discomfort, n (%) ([2]; Fed): 1.23%
- TEAE Nausea, n (%) ([2]; Fed): 3.7%
- TEAE Nervous System Disorders, n (%) ([2]; Fed): 1.23%
- TEAE Protein total decreased, n (%) ([2]; Fed): 1.23%
- TEAE Red blood cells urine positive, n (%) ([2]; Fed): 1.23%
- TEAE Urinary occult blood positive, n (%) ([2]; Fed): 2.47%
- TEAE emesis, n (%) ([2]; Fed): 3.7%
- adverse events related to the drug ([2]; both periods): 77
- drug-related adverse events of grade II ([2]; both periods): two
- serious adverse events, deaths, unexpected serious adverse reactions ([2]; both periods): No serious adverse events, deaths, or unexpected serious adverse reactions occurred
- subjects with adverse events [2, 8]: 16
- total adverse events (AEs) [2, 8]: 81
- average time to spontaneous resolution of gastrointestinal reactions ([2]; fasted period (range: 0–10 h)): 3.2 h
- average time of occurrence of gastrointestinal reactions post-dosing ([2]; fasted period (range: 1.7–7.3 h)): 4.2 h
- average time to spontaneous resolution of gastrointestinal reactions ([2]; fed period (range: 0–9.8 h)): 2.2 h
- average time of occurrence of gastrointestinal reactions post-dosing ([2]; fed period (range: 2.1–8.4 h)): 4.3 h
- freeze-thaw stability ([3]; method validation): endured four freeze-thaw cycles
- stability at room temperature ([3]; method validation): at least 23.5 h
- long-term stability ([3]; −20°C): 89 days
- long-term stability ([3]; −80°C): 89 days
- time to steady-state plasma concentrations ([4]; continuous dosing): approximately 7 days
- exposure increase with dose escalation ([4]; dose range 20–150 mg, single administration): exposure increase ratio slightly exceeding the dose increase ratio
- inhibition of CDK4/6 kinase activity (CDK4/6): potent inhibitory effects
- inhibition of proliferation of MCF-7 cells [5]: selectively inhibits proliferation
- anti-tumor efficacy compared with Palbociclib (MCF-7 tumor; human MCF-7 xenograft model): comparable anti-tumor efficacy to Palbociclib at reduced dosage levels
- MCF-7 tumor growth (MCF-7 tumor; in vivo): suppresses MCF-7 tumor growth in vivo
- preclinical toxicity findings [6]: gastrointestinal toxicity and hematological/serum biochemical abnormalities were observed at medium-to-high dose levels
